Test results as given in article PMC8234192 (2021).

Tested on: dsDNA (69 bp) (DNA, duplex) GATACGAGCATCGTGTAGGCATCGTAGGTAATACGGATGTGCTAGCTTATTGAATTCAGAGATCTATGC/GCATAGATCTCTGAATTCAATAAGCTAGCACATCCGTATTACCTACGATGCCTACACGATGCTCGTATC
Assay: fluorescence molecular brightness titration (FCS set-up)
Settings: 137 mM Na+, 2.7 mM K+, PBS pH 7.4, 0.002% Tween20, 25 °C, 20 nM YOYO-1, mono-intercalation step, 3.5 bp per site

CN1C(=Cc2cc[n+](CCC[N+](C)(C)CCC[N+](C)(C)CCC[n+]3ccc(C=C4Oc5ccccc5N4C)c4ccccc43)c3ccccc23)Oc2ccccc21
K1: 3.36 ± 0.43 × 10^7 M^-1
